Assay results from patent publication US20230212225A1, “PEPTIDE COMPOSTIONS AND METHODS FOR TREATING TAUOPATHIES” (AXOLTIS PHARMA, priority 2019, published 2023).
Where two headings read alike, the source gives them in different places. Where a SMILES comes first, the peptide text is derived from it. Bridges are numbered along the chain shown (N, C = ends).

Tests used:
[1] = test system: Aβ25-35-induced short-term memory deficits; assay: Spontaneous alternation performance (Y-maze), treatment started 1 hour after Aβ25-35 injection, tested D08; format: in vivo, mice; conditions: for Y-maze % (Sc.Aβ / Vhc = 100) / Y-maze Mean, percentage of alternation: D08
[2] = test system: Aβ25-35-induced long-term memory deficits; assay: Step-through passive avoidance test (STPA), D09-D10; format: in vivo, mice
[3] = test system: Aβ25-35-induced short-term memory deficits; assay: Long-term study (120 days): weekly Y-maze, NX218 and/or DPZ based treatments; format: in vivo, mice
Description: To investigate the potential of NX218 treatment to maintain cognitive restoration for a longer duration and to work as a 2nd line treatment when DPZ lose its activity: a long-term study (120 days) was performed in the Aβ25-35 mouse model of Tauopathies.
Mice were assigned to 6 treatment groups with 5-6 animals per group as described below.
From D01 until D120, mice of groups 1 and 2 were administered IP once a day (o.d.) with vehicle (water for injection).
Test compound NX218: • From D11 until D38, mice of group 3 were administered IP o.d. with NX218 at 2 mg/kg (mice were not treated with vehicle from D01 until D10). • From D01 until D120, mice of group 4 were administered IP o.d. with NX218 at 2 mg/kg.
DPZ rescued by test compound NX218: • From D01, mice of group 5 were administered PO by gavage o.d with DPZ at its active dose (1 mg/kg) until its effect disappears. Its efficacy disappeared on D36. DPZ was administered until D43 and then from D44, NX218 replaced DPZ until D78 via IP administration once a day at its active dose (2 mg/kg). • From D79 until D99: NX218 was administered via IP administration o.d. at a higher dose (4 mg/kg). • From D100 until D113 NX218 was administered via IP administration o.d. at a higher dose (8 mg/kg). • Administration of NX218 was stopped from D114 until animals were sacrificed.
Test compound NX218 in combination with DPZ: • From D01 until D120, mice of group 6 were co-administered with NX218 and DPZ at their respective subactive doses: • NX218: IP o.d., 0.1 mg/kg • DPZ: PO o.d., 0.25 mg/kg
All groups performed one behavioral test every week starting on D08 (7 days after Aβ25-35 peptide injection) to monitor the effects of the compounds:
Spontaneous alternation procedure in the Y-maze (YM, assessing spatial short-term/working memory as described in example 3) on D08, D15, D22, D29, D36, D43, D50, D57, D64, D71, D78, D85, D92, D99, D106, D113 and D120.

[4] = Preliminary PK study in rat; format: in vivo; conditions: slow bolus IV 49 mg/kg of NX210
Description: (§1) Therefore NX210 PK in animals is followed by the measurement of its cyclic form NX218. First a preliminary PK study in rat was performed in order to validate the method for detecting NX218 in plasma then translated to monkey by performing a more robust PK study with repeated experiments. All PK studies were performed with NaCl 0.9% as vehicle.

PK study in monkey = format: in vivo; conditions: for half-life: plasma, iv, 10 mg/kg
Description: as §1
In the 3 monkeys tested, data were reproducible after repeated testing at different days (D22, D37 and D51), after bolus IV injection of 10 mg/kg of NX210.

[5] = once a day, NX210 0.1 mg/kg, NX218 0.1 mg/kg, DPZ 0.25 mg/kg
[6] = monkey plasma NX218 after bolus IV 10 mg/kg NX210, mean

With `COc1cc2c(cc1OC)C(=O)C(CC1CCN(Cc3ccccc3)CC1)C2` (centres unmarked) [DPZ, Donepezil, reference compound] the “Y-maze % (Sc.Aβ / Vhc = 100)” value ([1]; PO 0.25 mg/kg once a day) was 56%, the “Y-maze Mean, percentage of alternation” value ([1]; PO 0.25 mg/kg once a day) was 41.82% and the “Y-maze % (Sc.Aβ / Vhc = 100)” value ([1]; PO 1 mg/kg once a day) was 93%. The “Y-maze Mean, percentage of alternation” value ([1]; PO 1 mg/kg once a day) was 68.90%, the “effect on Aβ25-35-induced short-term memory deficits (Y-maze) at subactive dose, in words” value [1, 5] was “do not impede” and the “EL % (Sc.Aβ / Vhc = 100)” value ([2]; PO 0.25 mg/kg once a day) was 445%. The “EL Mean, escape latency, retention session” value ([2]; PO 0.25 mg/kg once a day) was 88.67 s, the “STL % (Sc.Aβ / Vhc = 100)” value ([2]; PO 0.25 mg/kg once a day) was 39% and the “STL Mean, step-through latency, retention session” value ([2]; PO 0.25 mg/kg once a day) was 109.33 s. For the same compound, the “EL % (Sc.Aβ / Vhc = 100)” value ([2]; PO 1 mg/kg once a day) was 122%, the “EL Mean, escape latency, retention session” value ([2]; PO 1 mg/kg once a day) was 24.25 s and the “STL % (Sc.Aβ / Vhc = 100)” value ([2]; PO 1 mg/kg once a day) was 94%. For the same compound, the “STL Mean, step-through latency, retention session” value ([2]; PO 1 mg/kg once a day) was 265.83 s, the “effect on contextual long-term memory deficits (STL and EL) at subactive dose, in words” value [2, 5] was “do not impede” and the “duration of efficacy (Y-maze), in words” value ([3]; Group 5, DPZ PO 1 mg/kg o.d.) was “efficient only until D36”. For the same compound, the “% of alternation at DPZ resistance” value ([3]; Group 5, after 4 weeks of DPZ treatment) was 37%, the “Y-maze (D43) Mean (percentage of alternation)” value ([3]; Group 5: DPZ 1 mg/kg PO o.d. D01-D43, tested D43) was 38.73% and the “Y-maze (D43) %” value ([3]; Group 5: DPZ 1 mg/kg PO o.d. D01-D43, tested D43, Group 1 = 100) was 52%. For the same compound, the “Y-maze (D08) Mean, percentage of alternation” value ([3]; Group 5: DPZ 1 mg/kg PO o.d. from D01, tested D08) was 72.08%, the “Y-maze (D08) %” value ([3]; Group 5: DPZ 1 mg/kg PO o.d. from D01, tested D08, Group 1 = 100) was 98% and the “Y-maze (D15) Mean, percentage of alternation” value ([3]; Group 5: DPZ 1 mg/kg PO o.d. from D01, tested D15) was 76.00%. The “Y-maze (D15) %” value ([3]; Group 5: DPZ 1 mg/kg PO o.d. from D01, tested D15, Group 1 = 100) was 98%, the “Y-maze (D22) Mean, percentage of alternation” value ([3]; Group 5: DPZ 1 mg/kg PO o.d. from D01, tested D22) was 79.07% and the “Y-maze (D22) %” value ([3]; Group 5: DPZ 1 mg/kg PO o.d. from D01, tested D22, Group 1 = 100) was 106%. The “Y-maze (D29) Mean, percentage of alternation” value ([3]; Group 5: DPZ 1 mg/kg PO o.d. from D01, tested D29) was 62.05%, the “Y-maze (D29) %” value ([3]; Group 5: DPZ 1 mg/kg PO o.d. from D01, tested D29, Group 1 = 100) was 80% and the “Y-maze (D36) Mean (percentage of alternation)” value ([3]; Group 5: DPZ 1 mg/kg PO o.d. from D01, tested D36) was 36.23%. For the same compound, the “Y-maze (D36) %” value ([3]; Group 5: DPZ 1 mg/kg PO o.d. from D01, tested D36, Group 1 = 100) was 49%.

With `N=C(N)NCCC[C@@H]1NC(=O)[C@H](CO)NC(=O)[C@@H](NC(=O)[C@H](CO)NC(=O)[C@H](CO)NC(=O)[C@H](Cc2c[nH]c3ccccc23)NC(=O)CNC(=O)[C@H](CO)NC(=O)[C@@H](N)Cc2c[nH]c3ccccc23)CSSC[C@@H](C(=O)NCC(=O)O)NC(=O)[C@H](CO)NC1=O` [NX218, W-S-G-W-S-S-C-S-R-S-C-G] (H-WSGWSSCSRSCG-OH; disulfide 7-11; N-terminus and C-terminus assumed) the “time after injection from which NX218 became impossible to quantify in plasma” value [4] was 3 h, the AUC (PK study in monkey; [6]) was 960 ng·h/mL and the AUC(0-inf) (PK study in monkey; [6]) was 1060 ng·h/mL. It also gave a Cmax (PK study in monkey; [6]) of 19300 ng/mL, a Tmax (PK study in monkey; [6]) of 0 h and a clearance (PK study in monkey; [6]) of 190 mL/min/kg. For the same compound, the Vd (PK study in monkey; monkey plasma NX218 after bolus IV 10 mg/kg NX210, mean, read-out: VSS) was 0.0936 L/kg, the “plasma concentration course after injection, in words” value (PK study in monkey; monkey, bolus IV 10 mg/kg of NX210) was “rapidly decreased up to 30 minutes” and the half-life (PK study in monkey; monkey, monkey plasma NX218 after bolus IV 10 mg/kg NX210, mean, read-out: t½) was 12.7 min. It also gave a half-life (PK study in monkey; monkey, monkey, bolus IV 10 mg/kg NX210, NX218 measured, read-out: half-life) of roughly 12 min.
